US20080241943A1, “Subnanomolar Precipitator of Thiophilic Metals” (The Scripps Research Institute, priority 2004, published 2008)

Legend:
[1] = Thiophilic metal precipitation by ligand; type: physicochemical; conditions: for metal salt concentration at which precipitation was visually apparent: 10% aqueous CH3CN
Description: (§1) General procedure for thiophilic metal precipitation. A 10 μL aliquot of a 200 mM stock of metal ion in water was incubated at room temperature with 200 μL of a 10 mM stock of ligand 3a in CH3CN. Red precipitates from 3a appeared upon increasing the amount of water in the final reaction mixture to over 20% (v/v). The formation of these red precipitates provided an ideal tool for verification of sample quality. Red precipitates from 3a were readily removed by triturating the precipitate with acetonitrile.

[2] = Determination of the extent of metal precipitation (vapor atomic absorption of supernatant); type: physicochemical; conditions: after reacting 6.7±0.01 mM Hg(OAc)2 with 6.7±0.01 mM 3a
Description: Determination of the extent of metal precipitation. An 167 μL aliquot of a 20 mM stock of Hg(OAc)2 in water was incubated at room temperature with 333 μL of a 10 mM stock of ligand 3 in CH3CN. Precipitation occurred immediately. After 5 minutes the sample was centrifuged for 5 min at 14,000×g. The supernatant was removed and an aliquot submitted to vapor atomic absorption analysis (Galbraith Laboratories, Knoxyille, Tenn.).

[3] = Determination of solubility products (Ksp), reproducibility; type: physicochemical; conditions: concentrations 1 mM-0.1 μM, pH 3-10, temperature 0-50° C.
Description: (§2) Determination of solubility products (Ksp). Weight analysis (FIG. 2A): Ksp values were determined either by weighing the amount of precipitate 4a. Scale-up was required to provide sufficient material for analysis on conventional microbalances. The following procedure was used for this analysis: a 100 μL aliquot of a 200 mM stock of metal ion in water was incubated at room temperature with 2 mL of a 10 mM stock of ligand 3a in acetonitrile. After 10 minutes the precipitate was isolated by centrifugation for 5 min at 2,000×g, washed with acetonitrile (5 ml), methanol (5 ml) and dried in vacuo. Spectrophotometric analysis (FIG. 2B): A 10 μL aliquot of a 200 mM stock of metal ion in water was added to 200 μL of a 10 mM stock of ligand 3a in acetonitrile in a spin filter (Millipore). After 10 minutes at rt, the precipitate was removed by centrifugation at 2,000×g. Spectroscopic analysis of the supernatant was performed on a conventional microarray reader (PerSeptive Biosystems CytoFluor or Perkin Elmer HST 7000 plate reader).

[4] = Thiophilic metal precipitation by ligand, panel of metal ions; type: physicochemical; conditions: spectroscopic analyses; did not correlate with Ksp
Description: as §1

[5] = Heavy metal competitions (precipitation in the presence of other metal ions); type: physicochemical; conditions: mixtures containing Cu^2+
Description: as §2
Heavy metal competitions. A 167 μL aliquot of a 20 mM stock of metal ion in water was incubated at room temperature with 333 μL of a 10 mM stock of ligand 3a in acetonitrile. […] The supernatant was analyzed on a PerSeptive Biosystems CytoFluor or Perkin Elmer HST 7000 plate reader using excitation at 510 nm. […]

[6] = Precipitation of free ligand from aqueous CH3CN; type: physicochemical; conditions: 10 mM 3a stock in CH3CN, room temperature
Description: as §1

[7] = cited from earlier work

With `CCCCCCCCCCc1ccc(C2(c3ccc(CCCCCCCCCC)cc3)SC(=S)c3ccccc32)cc1` [3b, 3,3-Bis(4-decylphenyl)benzo[c]thiophene-1(3H)-thione] the “induction time of precipitation” value ([1]; by Hg^2+) was > 5 min and the “induction time of precipitation” value ([1]; by Pb^2+) was > 5 min.

With `S=C1SC(c2ccccc2)(c2ccccc2)c2ccccc21` [3a, 3,3-Diphenylbenzo[c]thiophene-1(3H)-thione] the “amount of Hg^2+ left in supernatant” value [2] was 0.58 ± 0.03 µM, the “metal salt concentration at which precipitation was visually apparent” value (shortened to “metal salt concentration”) ([1]; CdCl2 added to 25 μM 3a) was 50 µM and the “metal salt concentration” value ([1]; Hg(OAc)2 added to 1 μM 3a) was 2 µM. For the same compound, the “metal salt concentration” value ([1]; Pb(OAc)2 added to 5 μM 3a) was 10 µM, the “deviation of Ksp values” [3] was ≤ 1% and the “rate of precipitation (order of metal ions)” value [4] was “Hg^2+>Pb^2+>Cd^2+>(Au^3+˜Cu^2+)>(Pd^2+˜Ni^2+)>(Co^2+˜Mo^2+˜Pt^2+)”. For the same compound, the “Cu^2+ tolerated in analysis of Hg^2+, Pb^2+ and Cd^2+” value [5] was 500 equivalents and the “amount of water in the final reaction mixture at which red precipitates from 3a appeared” value [6] was “over 20 % (v/v)”.

In the case of `O=C(O)CN(CC(=O)O)c1ccc(-c2c3cc(F)c(=O)cc-3oc3cc(O)c(F)cc23)cc1OCCOc1cc([N+](=O)[O-])ccc1N(CC(=O)O)CC(=O)O` [Fluo-5N], the “affinity to Cd^2+ relative to La^3+” value ([7]; at 1 μM) is listed as “O-fold” and the “affinity for La^3+ over Cd^2+” value ([7]; at 100 μM) is listed as 2 fold.
